Reference: patent publication US6656509B1, “Combination of selenium-containing compounds with cytostatics” (Biosyn Arzneimittel GmbH, priority 1998, dated 2003)
Like-named read-outs stand apart in the source and are kept apart here.

Tests used:
[1] = system: LXFL 529; assay: clonogenic assay (colony forming assay); type: cell-based, human; conditions: LXFL 529/18, X182AM
Procedure: (§1) Solid human tumor xenografts growing subcutaneously in serial passages in thymus-aplastic nude mice (NMRI nu/nu strain, obtained from our own breeding facility) were removed under sterile conditions, the cells were mechanically disaggregated and subsequently incubated with an enzyme cocktail consisting of collagenase (1.2-1.8 U/ml, Worthington), DNAse (375 U/ml, Boehringer Mannheim) und hyaluronidase (29 U/ml, Boehringer Mannheim) in RPMI 1640 at 37° C. for 30 minutes. The cell mixture was passed through sieves of 200 μm and 50 μm mesh size and washed thereafter twice with PBS. The percentage of viable cells was determined in a Neubauer counting chamber using trypan blue exclusion.
(§2) The clonogenic assay was performed according to a modified two-layer soft agar assay described by Hamburger and Salmon (Hamburger and Salmon, Science, 197: 461463, 1977). The bottom layer consisted of 0.2 ml Iscoves' Modified Dulbecco's Medium with 20% fetal calf serum and 0.75% agar. 8×10^3 to 1,6×10^4 cells were added to 0.2 ml of the same culture medium together with 0.4% agar and placed in already coated 24-multiwell dishes. Test substances were applied by continuous exposure (drug overlay) in 0.2 ml medium. Every dish included six control wells containing the vehicle- and drug-treated groups in triplicate at six concentrations.
(§3) Cultures were incubated at 37° and 7% CO2 in a humidified atmosphere for 5 to 15 days (depending on the doubling time of the tumor stem cells) and monitored for colony growth using an inverted microscope. Within this period, in vitro tumor growth led to the formation of colonies with a diameter of ≧50 μm. At the time of maximum colony formation counts were performed with an automatic image analysis system (OMNICOM Fas IV, Biosys GmbH). 24 hours prior to this assay, vital colonies were stained with a sterile aqueous solution of 2-(4-iodophenyl)-3-(4-nitrophenyl)-5-phenyltetrazolium chloride (1 mg/ml, 100 μI/well). Drug effects were expressed in terms of the percentage of surviving cells, obtained by comparison of the mean number of colonies in the treated plates with the mean colony count of the untreated controls (test-versus-control-group value, T/C=colony countTreated Group*100/colony countControl Group).
(§4) Coefficient of variation in the control group ≦50%. IC50 and IC70 values were determined by plotting compound concentration versus cell survival rate. Mean IC50 and IC70 values were calculated according to the formula: [formula]
(§5) with x=specific tumor xenograft and n=total number of tumor xenografts studied. If an IC50 or IC70 value could not be determined within the examined dose range, the lowest or highest concentration studied was used for the calculation.

[2] = system: MAXF 401NL; assay: clonogenic assay (colony forming assay); type: cell-based, human; conditions: MAXF 401/16, X186AM
Procedure: as §1, §2, §3, §4, §5

[3] = system: MAXF MCF7X; assay: clonogenic assay (colony forming assay); type: cell-based, human; conditions: MAXF MCF7X/28; X218AM
Procedure: as §1, §2, §3, §4, §5

[4] = system: RXF 423; assay: clonogenic assay (colony forming assay); type: cell-based, human; conditions: RXF 423/16; X183AM
Procedure: as §1, §2, §3, §4, §5

[5] = system: LXFS 650; assay: clonogenic assay (colony forming assay); type: cell-based, human; conditions: LXFS 650/9; X199AM
Procedure: as §1, §2, §3, §4, §5

[6] = system: OVXF 1353; assay: clonogenic assay (colony forming assay); type: cell-based, human; conditions: OVXF 1353/17; X217AM
Procedure: as §1, §2, §3, §4, §5

[7] = system: PRXF PC3M; assay: clonogenic assay (colony forming assay); type: cell-based, human; conditions: PRXF PC3M/3; X189/AM
Procedure: as §1, §2, §3, §4, §5

[8] = cited from earlier work

Structure (SMILES): O=[Se]([O-])[O-].[Na+].[Na+] [sodium selenite]
- Test/control (%) at drug concentration [μM] 1. [1]: 61%
- Test/control (%) at drug concentration [μM] 10. [1]: 9%
- Test/control (%) at drug concentration [μM] 100. [1]: 0%
- Test/control (%) at drug concentration [μM] .001 [1]: 90%
- Test/control (%) at drug concentration [μM] .01 [1]: 78%
- Test/control (%) at drug concentration [μM] .1 [1]: 72%
- Test/control (%) class at drug concentration [μM] 1. [1]: − (− (T/C ≧ 50%))
- Test/control (%) class at drug concentration [μM] 10. [1]: +++ (+++ (T/C ≦ 10%))
- Test/control (%) class at drug concentration [μM] 100. [1]: +++ (+++ (T/C ≦ 10%))
- Test/control (%) class at drug concentration [μM] .001 [1]: − (− (T/C ≧ 50%))
- Test/control (%) class at drug concentration [μM] .01 [1]: − (− (T/C ≧ 50%))
- Test/control (%) class at drug concentration [μM] .1 [1]: − (− (T/C ≧ 50%))
- Test/control (%) at drug concentration [μM] 10. ([1]; listed as selenium): < 30%
- Test/control (%) at drug concentration [μM] 1. [2]: 74%
- Test/control (%) at drug concentration [μM] 10. [2]: 66%
- Test/control (%) at drug concentration [μM] 100. [2]: 8%
- Test/control (%) at drug concentration [μM] .1 [2]: 53%
- Test/control (%) class at drug concentration [μM] 1. [2]: − (− (T/C ≧ 50%))
- Test/control (%) class at drug concentration [μM] 10. [2]: − (− (T/C ≧ 50%))
- Test/control (%) class at drug concentration [μM] 100. [2]: +++ (+++ (T/C ≦ 10%))
- Test/control (%) class at drug concentration [μM] .1 [2]: − (− (T/C ≧ 50%))
- Test/control (%) at drug concentration [μM] .001 ([2]; s result of a dish): 67%
- Test/control (%) at drug concentration [μM] .01 ([2]; s result of a dish): 81%
- Test/control (%) class at drug concentration [μM] .001 ([2]; s result of a dish): − (− (T/C ≧ 50%))
- Test/control (%) class at drug concentration [μM] .01 ([2]; s result of a dish): − (− (T/C ≧ 50%))
- Test/control (%) at drug concentration [μM] 1. [3]: 78%
- Test/control (%) at drug concentration [μM] 10. [3]: 97%
- Test/control (%) at drug concentration [μM] 100. [3]: 0%
- Test/control (%) at drug concentration [μM] .001 [3]: 93%
- Test/control (%) at drug concentration [μM] .01 [3]: 85%
- Test/control (%) at drug concentration [μM] .1 [3]: 90%
- Test/control (%) class at drug concentration [μM] 1. [3]: − (− (T/C ≧ 50%))
- Test/control (%) class at drug concentration [μM] 10. [3]: − (− (T/C ≧ 50%))
- Test/control (%) class at drug concentration [μM] 100. [3]: +++ (+++ (T/C ≦ 10%))
- Test/control (%) class at drug concentration [μM] .001 [3]: − (− (T/C ≧ 50%))
- Test/control (%) class at drug concentration [μM] .01 [3]: − (− (T/C ≧ 50%))
- Test/control (%) class at drug concentration [μM] .1 [3]: − (− (T/C ≧ 50%))
- Test/control (%) at drug concentration [μM] 1. [4]: 92%
- Test/control (%) at drug concentration [μM] 10. [4]: 110%
- Test/control (%) at drug concentration [μM] 100. [4]: 0%
- Test/control (%) at drug concentration [μM] .001 [4]: 99%
- Test/control (%) at drug concentration [μM] .01 [4]: 111%
- Test/control (%) at drug concentration [μM] .1 [4]: 120%
- Test/control (%) class at drug concentration [μM] 1. [4]: − (− (T/C ≧ 50%))
- Test/control (%) class at drug concentration [μM] 10. [4]: − (− (T/C ≧ 50%))
- Test/control (%) class at drug concentration [μM] 100. [4]: +++ (+++ (T/C ≦ 10%))
- Test/control (%) class at drug concentration [μM] .001 [4]: − (− (T/C ≧ 50%))
- Test/control (%) class at drug concentration [μM] .01 [4]: − (− (T/C ≧ 50%))
- Test/control (%) class at drug concentration [μM] .1 [4]: − (− (T/C ≧ 50%))
- Test/control (%) at drug concentration [μM] 1. [5]: 84%
- Test/control (%) at drug concentration [μM] 10. [5]: 109%
- Test/control (%) at drug concentration [μM] 100. [5]: 16%
- Test/control (%) at drug concentration [μM] .001 [5]: 100%
- Test/control (%) at drug concentration [μM] .01 [5]: 100%
- Test/control (%) at drug concentration [μM] .1 [5]: 98%
- Test/control (%) class at drug concentration [μM] 1. [5]: − (− (T/C ≧ 50%))
- Test/control (%) class at drug concentration [μM] 10. [5]: − (− (T/C ≧ 50%))
- Test/control (%) class at drug concentration [μM] 100. [5]: ++ (++ (10% < T/C < 30%))
- Test/control (%) class at drug concentration [μM] .001 [5]: − (− (T/C ≧ 50%))
- Test/control (%) class at drug concentration [μM] .01 [5]: − (− (T/C ≧ 50%))
- Test/control (%) class at drug concentration [μM] .1 [5]: − (− (T/C ≧ 50%))
- Test/control (%) at drug concentration [μM] 1. [6]: 90%
- Test/control (%) at drug concentration [μM] 10. [6]: 100%
- Test/control (%) at drug concentration [μM] 100. [6]: 0%
- Test/control (%) at drug concentration [μM] .001 [6]: 96%
- Test/control (%) at drug concentration [μM] .01 [6]: 91%
- Test/control (%) at drug concentration [μM] .1 [6]: 100%
- Test/control (%) class at drug concentration [μM] 1. [6]: − (− (T/C ≧ 50%))
- Test/control (%) class at drug concentration [μM] 10. [6]: − (− (T/C ≧ 50%))
- Test/control (%) class at drug concentration [μM] 100. [6]: +++ (+++ (T/C ≦ 10%))
- Test/control (%) class at drug concentration [μM] .001 [6]: − (− (T/C ≧ 50%))
- Test/control (%) class at drug concentration [μM] .01 [6]: − (− (T/C ≧ 50%))
- Test/control (%) class at drug concentration [μM] .1 [6]: − (− (T/C ≧ 50%))
- Test/control (%) at drug concentration [μM] 1. [7]: 85%
- Test/control (%) at drug concentration [μM] 10. [7]: 38%
- Test/control (%) at drug concentration [μM] 100. [7]: 1%
- Test/control (%) at drug concentration [μM] .001 [7]: 91%
- Test/control (%) at drug concentration [μM] .01 [7]: 91%
- Test/control (%) at drug concentration [μM] .1 [7]: 89%
- Test/control (%) class at drug concentration [μM] 1. [7]: − (− (T/C ≧ 50%))
- Test/control (%) class at drug concentration [μM] 10. [7]: + (+ (30% ≦ T/C < 50%))
- Test/control (%) class at drug concentration [μM] 100. [7]: +++ (+++ (T/C ≦ 10%))
- Test/control (%) class at drug concentration [μM] .001 [7]: − (− (T/C ≧ 50%))
- Test/control (%) class at drug concentration [μM] .01 [7]: − (− (T/C ≧ 50%))
- Test/control (%) class at drug concentration [μM] .1 [7]: − (− (T/C ≧ 50%))
- plasma selenium ([8]; 8 hours after 10 mg selenium as sodium selenite): 770 μg/I
- plasma selenium ([8]; 16 hours after 10 mg selenium as sodium selenite): 430 μg/I
- time until selenium level in plasma again reached its initial value ([8]; after 10 mg selenium as sodium selenite): 24 h
- dose from which gastrointestinal toxicity was observed (reversible) ([8]; infusion, tumor patients): about 20 mg selenium
- selenium level in plasma ([8]; within 30 minutes after 10 mg selenium as sodium selenite, infused, rose from 200 μg/l): 1200 µg/L
